Strand notation (5' to 3'): a small letter for the sugar, then the base; units joined by * are phosphorothioate-linked, units joined directly phosphodiester-linked; [ ] holds rarer units or linkages, { } end groups; capitals alone tell only the bases. e = 2'-O-(2-methoxyethyl) (MOE); [5mC] = 5-methylcytosine; d = 2'-deoxy (DNA)
Key:
Assay type in all cases: cell-based
human Factor 11 mRNA [1] = experiment: Dose-dependent inhibition of human Factor 11 in HepG2 cells, lipofectin 9.375-75 nM (Example 4); conditions: for percent inhibition of Factor 11 at 9.375 nM / percent inhibition of Factor 11 at 18.75 nM / percent inhibition of Factor 11 at 37.5 nM / percent inhibition of Factor 11 at 75 nM: relative to untreated control cells
Procedure: (§1) Cells were plated at a density of 10,000 cells per well and transfected using lipofectin reagent with 9.375 nM, 18.75 nM, 37.5 nM and 75 nM concentrations of antisense oligonucleotide, as specified in Table 9. After a treatment period of approximately 16 hours, RNA was isolated from the cells and Factor 11 mRNA levels were measured by quantitative real-time PCR. Human Factor 11 primer probe set RTS 2966 was used to measure mRNA levels. Factor 11 mRNA levels were adjusted according to total RNA content, as measured by RIBOGREEN. Results are presented as percent inhibition of Factor 11, relative to untreated control cells.

human Factor 11 mRNA [2] = experiment: Antisense inhibition of human Factor 11 in HepG2 cells by microwalk gapmers, lipofectin, 75 nM (Example 3)
In short: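 HepG2 cells (10,000/well) were transfected via lipofectin with 75 nM 20-mer MOE gapmers (phosphorothioate, 5-methyl-C) for about 24 h. Factor 11 mRNA was measured by qRT-PCR, normalized to RIBOGREEN total RNA, and given as percent inhibition versus untreated cells.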

human Factor 11 mRNA [3] = experiment: Dose-dependent inhibition of human Factor 11 in HepG2 cells, electroporation 0.7-20 uM (Example 4); conditions: for percent inhibition of Factor 11 at 0.7 μM / percent inhibition of Factor 11 at 2.2 μM / percent inhibition of Factor 11 at 6.7 μM / percent inhibition of Factor 11 at 20 μM: relative to untreated control cells
Procedure: as §1, with “The gapmers were also transfected via electroporation and their dose dependent inhibition of human Factor 11 mRNA was measured. Cells” for “Cells”, “20,000” for “10,000”, “via electroporation” for “using lipofectin reagent”, “0.7 μM, 2.2 μM, 6.7 μM,” for “9.375 nM, 18.75 nM, 37.5 nM”, “20 μM” for “75 nM”, “10.” for “9.”

[4] = HepG2 cells, lipofectin, gapmers targeted to nucleobases 1062 to 1091 of SEQ ID NO: 1
[5] = HepG2, lipofectin, ~24 h, gapmers targeted to nucleobases 656 to 704 of SEQ ID NO: 1
[6] = HepG2 cells, lipofectin, gapmers targeted to nucleobases 1275 to 1318 of SEQ ID NO: 1

Substance	IC50 (human Factor 11 mRNA [1]) [nM]	percent inhibition of Factor 11 at 9.375 nM (human Factor 11 mRNA [1]) [%]	percent inhibition of Factor 11 at 18.75 nM (human Factor 11 mRNA [1]) [%]	percent inhibition of Factor 11 at 37.5 nM (human Factor 11 mRNA [1]) [%]	percent inhibition of Factor 11 at 75 nM (human Factor 11 mRNA [1]) [%]	% inhibition (human Factor 11 mRNA [2]; [4]) [%]	IC50 (human Factor 11 mRNA [3]) [nM]	percent inhibition of Factor 11 at 0.7 μM (human Factor 11 mRNA [3]) [%]	percent inhibition of Factor 11 at 2.2 μM (human Factor 11 mRNA [3]) [%]	percent inhibition of Factor 11 at 6.7 μM (human Factor 11 mRNA [3]) [%]	percent inhibition of Factor 11 at 20 μM (human Factor 11 mRNA [3]) [%]	% inhibition (human Factor 11 mRNA [2]; [5]) [%]	% inhibition (human Factor 11 mRNA [2]; [6]) [%]	% inhibition (human Factor 11 mRNA [2]; HepG2 cells, lipofectin, gapmers targeted to nucleobases 1018 to 1042 of SEQ ID NO: 1) [%]
416842 (antisense eT*eG*eA*eG*eA*dT*dT*d[5mC]*dT*dT*dT*dG*dG*dG*d[5mC]*e[5mC]*eA*eT*eT*e[5mC]) [compound 416842]	31	18	33	62	71	94	5000	0	10	66	92			
416993 (antisense e[5mC]*eT*dT*dT*dG*dA*dG*dA*dT*dT*d[5mC]*dT*dT*dT*dG*eG*eG*e[5mC]*e[5mC]*eA) [compound 416993]	36	15	37	50	68	91	2200	22	48	87	92			
416969 (antisense eG*e[5mC]*d[5mC]*d[5mC]*dT*dT*d[5mC]*dA*dT*dG*dT*d[5mC]*dT*dA*dG*eG*eT*e[5mC]*e[5mC]*eA) [compound 416969]	28	17	39	61	76		2500	25	34	86	92	80		
416923 (antisense eT*eG*e[5mC]*dA*d[5mC]*dA*dG*dT*dT*dT*d[5mC]*dT*dG*dG*d[5mC]*dA*dG*eG*e[5mC]*e[5mC]) [compound 416923]	23	36	47	60	67		4000	15	30	60	90		96	
416895 (antisense eT*eA*eT*dG*d[5mC]*d[5mC]*d[5mC]*dT*dT*d[5mC]*dA*dT*dG*dT*d[5mC]*dT*dA*eG*eG*eT) [compound 416895]	15	39	57	66	71		3000	0	62	70	91	95		
416931 (antisense eG*eG*e[5mC]*dA*dT*dT*dG*dG*dT*dG*d[5mC]*dA*d[5mC]*dA*dG*dT*dT*eT*e[5mC]*eT) [compound 416931]	22	44	39	57	71		5100	7	24	60	82		96	
416908 (antisense eG*e[5mC]*eA*dA*d[5mC]*d[5mC]*dG*dG*dG*dA*dT*dG*dA*dT*dG*dA*dG*eT*eG*e[5mC]) [compound 416908]	16	36	57	67	76		2800	7	58	74	89			98

From patent publication US20230263822A1, “MODULATION OF FACTOR 11 EXPRESSION” (Ionis Pharmaceuticals, Inc., priority 2008, published 2023)
